Measurements published in PMC9014410, “Discovery of V-0219: A Small-Molecule Positive Allosteric Modulator of the Glucagon-Like Peptide-1 Receptor toward Oral Treatment for “Diabesity”” (Journal of Medicinal Chemistry, 2022).

What follows are molecules tested against hGLP-1R (Homo sapiens, UniProt P43220) (assay: cAMP accumulation in HEK-293 cells expressing hGLP-1R (HEK-GLP-1 cells)). Conditions: HEK293, read-out: Potentiation of GLP-1 Emax at 10 ?M in a cAMP assay (%); 10 ?M compound (supplementary csv).
hGLP-1R, sequence (P43220 24-463): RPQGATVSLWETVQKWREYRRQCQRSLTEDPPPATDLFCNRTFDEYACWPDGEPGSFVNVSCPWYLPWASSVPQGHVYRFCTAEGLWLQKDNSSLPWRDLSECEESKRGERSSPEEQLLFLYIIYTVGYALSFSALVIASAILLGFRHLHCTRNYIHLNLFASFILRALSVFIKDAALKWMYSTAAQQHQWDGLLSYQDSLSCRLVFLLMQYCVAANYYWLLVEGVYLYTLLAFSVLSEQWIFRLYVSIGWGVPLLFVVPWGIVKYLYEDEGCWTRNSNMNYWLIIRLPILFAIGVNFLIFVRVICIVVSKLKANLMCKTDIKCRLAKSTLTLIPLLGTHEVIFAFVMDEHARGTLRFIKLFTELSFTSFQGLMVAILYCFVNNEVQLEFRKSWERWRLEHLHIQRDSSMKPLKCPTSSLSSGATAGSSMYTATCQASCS
Assay type: cell-based
Description: After this time the culture medium was replaced by 20 μL fresh Opti-MEM containing 500 μM IBMX and 100 μM K579 and incubated with gentle stirring for 10 min at rt. […] Concentration-response curves were fitted to a 4-parameter logistic equation by using GraphPad Prism 2.1 software.
With `O=C(CC1CCN(Cc2nc(-c3ccc(C(F)(F)F)cc3)no2)CC1)NS(=O)(=O)c1ccc(C(F)(F)F)cc1` [S62] the Emax was under 30%.
`Cc1ccc(-c2noc(CN3CCCC(CN4CCOCC4)C3)n2)cc1` (stereo not shown) [S69] was tested, and the Emax was under 30%.
Work on `N#Cc1cccc(S(=O)(=O)NC2CCN(Cc3nc(-c4ccc(C(F)(F)F)cc4)no3)CC2)c1` [S8] yielded an Emax of under 30%.
Work on `NC(=O)c1ccc(-c2noc(CN3CCCC(CN4CCOCC4)C3)n2)cc1` (stereo not shown) [S85] yielded an Emax of under 30%.
`O=C(NS(=O)(=O)c1ccccc1Cl)C1CCN(Cc2nc(-c3ccc(C(F)(F)F)cc3)no2)CC1` [S44] gave an Emax of under 30%.
Work on `CCCS(=O)(=O)NC(=O)CC1CCN(Cc2nc(-c3ccc(C(F)(F)F)cc3)no2)CC1` [S53] yielded an Emax of under 30%.
`O=[N+]([O-])c1ccc(S(=O)(=O)NC2CCN(Cc3nc(-c4ccc(C(F)(F)F)cc4)no3)CC2)cc1` [S6] gave an Emax of under 30%.
`O=C(NS(=O)(=O)c1cccc(Cl)c1)C1CCN(Cc2nc(-c3ccc(C(F)(F)F)cc3)no2)CC1` [S45] was tested, and the Emax was under 30%.
Work on `O=C(NS(=O)(=O)c1ccc(Cl)cc1)C1CCN(Cc2nc(-c3ccc(C(F)(F)F)cc3)no2)CC1` [S46] yielded an Emax of under 30%.
`CS(=O)(=O)NCC1CCN(Cc2nc(-c3ccc(C(F)(F)F)cc3)no2)CC1` [S20] showed an Emax of under 30%.
`O=S(=O)(Cc1ccccc1)NCC1CCN(Cc2nc(-c3ccc(C(F)(F)F)cc3)no2)CC1` [S22] was tested, and the Emax was under 30%.
In the case of `O=S(=O)(NC1CCN(Cc2nc(-c3ccc(C(F)(F)F)cc3)no2)CC1)c1cccc(Cl)c1` [S10], the Emax is reported as under 30%.
In the case of `O=S(=O)(NC1CCN(Cc2nc(-c3ccc(C(F)(F)F)cc3)no2)CC1)c1ccccc1F` [S12], the Emax is reported as under 30%.
Molecule `CCCS(=O)(=O)NCC1CCN(Cc2nc(-c3ccc(C(F)(F)F)cc3)no2)CC1` [S21] has an Emax of under 30%.
For `O=S(=O)(NC1CCN(Cc2nc(-c3ccc(C(F)(F)F)cc3)no2)CC1)c1ccc(C(F)(F)F)cc1` [S16], the Emax was under 30%.
`CC(=O)c1cccc(S(=O)(=O)NC2CCN(Cc3nc(-c4ccc(C(F)(F)F)cc4)no3)CC2)c1` [S4] showed an Emax of under 30%.
`CNc1ccc(-c2noc(CN3CCCC(CN4CCOCC4)C3)n2)cc1` (stereo not shown) [S75] showed an Emax of under 30%.
`CC(=O)c1cccc(S(=O)(=O)NC(=O)C2CCN(Cc3nc(-c4ccc(C(F)(F)F)cc4)no3)CC2)c1` [S40] showed an Emax of under 30%.
Work on `O=S(=O)(Cc1ccccc1)NC1CCN(Cc2nc(-c3ccc(C(F)(F)F)cc3)no2)CC1` [S3] yielded an Emax of under 30%.
In the case of `O=S(=O)(NCC1CCN(Cc2nc(-c3ccc(C(F)(F)F)cc3)no2)CC1)c1ccc(OC(F)(F)F)cc1` [S36], the Emax is reported as under 30%.
Work on `O=S(=O)(NC1CCN(Cc2nc(-c3ccc(C(F)(F)F)cc3)no2)CC1)c1ccc(Cl)cc1` [S11] yielded an Emax of under 30%.
For `FC(F)(F)c1ccccc1-c1noc(CN2CCCC(CN3CCOCC3)C2)n1` (stereo not shown) [S65], the Emax was under 30%.
In the case of `CS(=O)(=O)NC(=O)CC1CCN(Cc2nc(-c3ccc(C(F)(F)F)cc3)no2)CC1` [S52], the Emax is reported as under 30%.
For `N#Cc1ccc(S(=O)(=O)NCC2CCN(Cc3nc(-c4ccc(C(F)(F)F)cc4)no3)CC2)cc1` [S27], the Emax was under 30%.
Work on `O=C(NS(=O)(=O)c1ccccc1F)C1CCN(Cc2nc(-c3ccc(C(F)(F)F)cc3)no2)CC1` [S41] yielded an Emax of under 30%.
Work on `CNc1ccccc1-c1noc(CN2CCCC(CN3CCOCC3)C2)n1` (stereo not shown) [S73] yielded an Emax of under 30%.
Molecule `COC(=O)c1ccc(-c2noc(CN3CCCC(CN4CCOCC4)C3)n2)cc1` (stereo not shown) [S83] has an Emax of under 30%.
`O=S(=O)(NCC1CCN(Cc2nc(-c3ccc(C(F)(F)F)cc3)no2)CC1)c1cccc(F)c1` [S31] gave an Emax of under 30%.
